Assays:
[1] = tested on: purple nutsedge; assay: Test B pre/postemergence purple nutsedge; assay type: in vivo, Cyperus rotundus
Outline: (§1)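 Response is a visual 0-to-10 score relative to untreated plants, where 0 means no effect and 10 means complete control, taken twelve to sixteen days after application. Treatments went onto soil at planting and onto foliage of 1- to 4-leaf plants, using a surfactant-containing non-phytotoxic solvent.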

[2] = tested on: sugar beet; assay: Test B pre/postemergence sugar beet; assay type: in vivo, Beta vulgaris
Outline: as §1

[3] = tested on: giant foxtail; assay: Test B pre/postemergence giant foxtail; assay type: in vivo, Setaria faberii
Outline: as §1

[4] = tested on: bedstraw; assay: Test B pre/postemergence bedstraw; assay type: in vivo, Galium aparine
Outline: as §1

[5] = tested on: blackgrass; assay: Test B pre/postemergence blackgrass; assay type: in vivo, Alopecurus myosuroides
Outline: as §1

[6] = tested on: crabgrass; assay: Test B pre/postemergence crabgrass; assay type: in vivo, Digitaria sanguinalis
Outline: as §1

[7] = tested on: morningglory; assay: Test B pre/postemergence morningglory; assay type: in vivo, Ipomoea hederacea
Outline: as §1

[8] = tested on: cocklebur; assay: Test B pre/postemergence cocklebur; assay type: in vivo, Xanthium strumarium
Outline: as §1

[9] = tested on: surinam grass; assay: Test B pre/postemergence surinam grass; assay type: in vivo, Brachiaria decumbens
Outline: as §1

[10] = tested on: pigweed; assay: Test B pre/postemergence pigweed; assay type: in vivo, Amaranthus retroflexus
Outline: as §1

[11] = tested on: wild oat; assay: Test B pre/postemergence wild oat; assay type: in vivo, Avena fatua
Outline: as §1

[12] = tested on: duck salad; assay: Test B flood test duck salad; assay type: in vivo, Heteranthera limosa
Outline: (§2)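 Flood test on plants grown to the 2-leaf stage; treated plants kept in greenhouse twelve to sixteen days, then visually rated against controls on a 0 (no effect) to 10 (complete control) scale.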

[13] = tested on: smallflower flatsedge; assay: Test B flood test smallflower flatsedge; assay type: in vivo, Cyperus difformis
Outline: as §2

[14] = tested on: rice; assay: Test B flood test rice; assay type: in vivo, Oryza sativa
Outline: as §2

[15] = tested on: soybean; assay: Test B pre/postemergence soybean; assay type: in vivo, Glycine max
Outline: as §1

[16] = tested on: corn; assay: Test B pre/postemergence corn; assay type: in vivo, Zea mays
Outline: as §1

[17] = Preemergence, Rate 62 g/ha, scale of 0 to 10 where 0 is no effect and 10 is complete control
[18] = Preemergence, Rate 500 g/ha, scale of 0 to 10 where 0 is no effect and 10 is complete control
[19] = Rate 62 g/ha, Postemergence, scale 0 to 10 (0 no effect, 10 complete control)
[20] = Rate 125 g/ha, Postemergence, scale of 0 to 10 where 0 is no effect and 10 is complete control
[21] = Rate 250 g/ha, Postemergence, scale of 0 to 10 where 0 is no effect and 10 is complete control
[22] = Preemergence, Rate 250 g/ha, scale of 0 to 10 where 0 is no effect and 10 is complete control
[23] = Rate 500 g/ha, Postemergence, scale 0 to 10, 0 no effect, 10 complete control
[24] = Rate 62 g/ha, headed Pre-emergence (flood test species), scale 0 to 10 (0 no effect, 10 complete control)
[25] = Rate 125 g/ha, Pre-emergence, flood test species, scale 0 to 10 where 0 is no effect and 10 is complete control
[26] = Rate 250 g/ha, Pre-emergence, flood-test species, scale 0 to 10, 0 is no effect, 10 is complete control
[27] = Rate 500 g/ha, Pre-emergence, flood test species, scale 0 to 10 (0 no effect, 10 complete control)

## CSCCn1c(=O)on(C(=O)N(c2ccc(F)cc2)C(C)C)c1=O [Compound 314]
[1]; [17]
  Nutsedge plant response rating: 0
[1]; [18]
  Nutsedge plant response rating: 0
[1]; [19]
  Nutsedge plant response rating: 0
[1]; [20]
  Nutsedge plant response rating: 0
[1]; [21]
  Plant response rating, Nutsedge: 0
[2]; [17]
  Sugarbeets plant response rating: 0
[2]; Preemergence, Rate 125 g/ha
  Sugarbeets plant response rating (0 to 10 scale): 2
[2]; [22]
  Sugarbeets plant response rating: 2
[2]; [18]
  Sugarbeets plant response rating: 6
[2]; [19]
  Sugarbeets plant response rating: 0
[2]; [20]
  Sugarbeets plant response rating: 0
[2]; [21]
  Plant response rating, Sugarbeets: 0
[3]; [17]
  Giant foxtail plant response rating: 3
[3]; Preemergence, Rate 125 g/ha
  Giant foxtail plant response rating (0 to 10 scale): 6
[3]; [22]
  Giant foxtail plant response rating: 7
[3]; [18]
  Giant foxtail plant response rating: 10
[3]; [19]
  Giant foxtail plant response rating: 0
[3]; [20]
  Giant foxtail plant response rating: 0
[3]; [21]
  Plant response rating, Giant foxtail: 3
[4]; [17]
  Bedstraw plant response rating: 0
[4]; Preemergence, Rate 125 g/ha
  Bedstraw plant response rating (0 to 10 scale): 0
[4]; [22]
  Bedstraw plant response rating: 0
[4]; [18]
  Bedstraw plant response rating: 3
[4]; [19]
  Bedstraw plant response rating: 2
[4]; [20]
  Bedstraw plant response rating: 4
[5]; [17]
  Blackgrass plant response rating: 5
[5]; Preemergence, Rate 125 g/ha
  Blackgrass plant response rating (0 to 10 scale): 7
[5]; [22]
  Blackgrass plant response rating: 10
[5]; [18]
  Blackgrass plant response rating: 10
[5]; [19]
  Blackgrass plant response rating: 2
[5]; [20]
  Blackgrass plant response rating: 4
[5]; [21]
  Plant response rating, Blackgrass: 5
[5]; [23]
  Blackgrass plant response rating: 5
[6]; [17]
  Crabgrass plant response rating: 1
[6]; Preemergence, Rate 125 g/ha
  Crabgrass plant response rating (0 to 10 scale): 3
[6]; [22]
  Crabgrass plant response rating: 7
[6]; [18]
  Crabgrass plant response rating: 8
[6]; [19]
  Crabgrass plant response rating: 0
[6]; [20]
  Crabgrass plant response rating: 0
[6]; [21]
  Plant response rating, Crabgrass: 4
[7]; [17]
  Morningglory plant response rating: 0
[7]; Preemergence, Rate 125 g/ha
  Morningglory plant response rating (0 to 10 scale): 0
[7]; [22]
  Morningglory plant response rating: 0
[7]; [18]
  Morningglory plant response rating: 0
[7]; [19]
  Morningglory plant response rating: 2
[7]; [20]
  Morningglory plant response rating: 2
[7]; [21]
  Plant response rating, Morningglory: 3
[8]; [17]
  Cocklebur plant response rating: 0
[8]; Preemergence, Rate 125 g/ha
  Cocklebur plant response rating (0 to 10 scale): 0
[8]; [22]
  Cocklebur plant response rating: 0
[8]; [18]
  Cocklebur plant response rating: 0
[8]; [19]
  Cocklebur plant response rating: 0
[8]; [21]
  Plant response rating, Cocklebur: 1
[8]; [23]
  Cocklebur plant response rating: 1
[9]; [17]
  B. signalgrass plant response rating: 0
[9]; Preemergence, Rate 125 g/ha
  B. signalgrass plant response rating (0 to 10 scale, 0 is no effect, 10 is complete control): 2
[9]; [22]
  B. signalgrass plant response rating: 6
[9]; [18]
  B. signalgrass plant response rating: 6
[9]; [19]
  B. signalgrass plant response rating: 0
[9]; [20]
  B. signalgrass plant response rating: 0
[9]; [21]
  Plant response rating, B. signalgrass: 0
[9]; [23]
  B. signalgrass plant response rating: 3
[10]; [17]
  Redroot pigweed plant response rating: 0
[10]; Preemergence, Rate 125 g/ha
  Redroot pigweed plant response rating (0 to 10 scale): 2
[10]; [22]
  Redroot pigweed plant response rating: 2
[10]; [18]
  Redroot pigweed plant response rating: 9
[10]; [19]
  Redroot pigweed plant response rating: 0
[10]; [20]
  Redroot pigweed plant response rating: 0
[10]; [21]
  Plant response rating, Redroot pigweed: 0
[11]; [17]
  Wild oats plant response rating: 0
[11]; Preemergence, Rate 125 g/ha
  Wild oats plant response rating (0 to 10 scale): 2
[11]; [22]
  Wild oats plant response rating: 2
[11]; [18]
  Wild oats plant response rating: 3
[11]; [19]
  Wild oats plant response rating: 0
[11]; [20]
  Wild oats plant response rating: 0
[11]; [21]
  Plant response rating, Wild oats: 2
[12]; [24]
  Ducksalad plant response rating: 0
[12]; [25]
  Ducksalad plant response rating: 0
[12]; [26]
  Ducksalad plant response rating: 0
[12]; [27]
  Ducksalad plant response rating: 0
[13]; [24]
  S. Flatsedge plant response rating: 0
[13]; [25]
  S. Flatsedge plant response rating: 0
[13]; [26]
  S. Flatsedge plant response rating: 0
[13]; [27]
  S. Flatsedge plant response rating: 0
[14]; [24]
  Rice plant response rating: 0
[14]; [25]
  Rice plant response rating: 0
[14]; [26]
  Rice plant response rating: 0
[14]; [27]
  Rice plant response rating: 0
[15]; [17]
  Soybean plant response rating: 0
[15]; Preemergence, Rate 125 g/ha
  Soybean plant response rating (0 to 10 scale): 0
[15]; [22]
  Soybean plant response rating: 0
[15]; [18]
  Soybean plant response rating: 0
[15]; [19]
  Soybean plant response rating: 2
[15]; [20]
  Soybean plant response rating: 3
[15]; [21]
  Plant response rating, Soybean: 4
[16]; [17]
  Corn plant response rating: 0
[16]; Preemergence, Rate 125 g/ha
  Corn plant response rating (0 to 10 scale): 0
[16]; [22]
  Corn plant response rating: 0
[16]; [18]
  Corn plant response rating: 0
[16]; [19]
  Corn plant response rating: 0
[16]; [20]
  Corn plant response rating: 0
[16]; [21]
  Plant response rating, Corn: 0
[16]; [23]
  Corn plant response rating: 0

Reference: patent US6737383B1, “Herbicidal oxadiazolidines” (priority 1999, dated 2004)
